Assay results taken from patent US9340493B2, “Hydroxamic acid derivatives useful as antibacterial agents” (Pfizer Inc., priority 2008, dated 2016).
Values after ≈ are worked out from the molar mass of the structure shown.

Assays:
[1] = test system: Enterobacter aerogenes; assay: MIC determination, E. aerogenes; format: cell-based; conditions: Klebsiella aerogenes; quinolone-resistant, ESBL-expressing clinical isolate; * = arithmetic mean of 2-6 MIC determinations; read-out: MIC (ug/mL) E. aerogenes
Summary of the method: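 Clinical E. aerogenes isolate, quinolone-resistant and ESBL-expressing. MIC measured in vitro by dilution testing according to CLSI guidelines (M7-A7, M100-S18).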

[2] = test system: Klebsiella pneumoniae; assay: MIC determination, K. pneumoniae; format: cell-based; conditions: ciprofloxacin-resistant, ESBL-expressing clinical isolate, * = arithmetic mean of 2-6 MIC determinations, read-out: MIC (ug/mL) K. pneumoniae
Summary of the method: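 MIC determined by broth dilution per CLSI M7-A7 and M100-S18 guidelines. Strain: ciprofloxacin-resistant, ESBL-expressing clinical isolate of K. pneumoniae.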

[3] = test system: Escherichia coli EC-1; assay: MIC determination, E. coli EC-1; format: cell-based; conditions: EC1, EC-1: VOGEL, * = arithmetic mean of 2-6 MIC determinations, read-out: MIC (ug/mL) E. coli EC-1
Summary of the method: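 Minimum inhibitory concentration against Escherichia coli EC-1 was determined in vitro by dilution susceptibility testing under CLSI M7-A7 and M100-S18 guidelines.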

[4] = test system: Staphylococcus aureus ATCC 29213; assay: MIC determination, S. aureus ATCC 29213; format: cell-based; conditions: ATCC29213, CLSI quality control reference strain, * = arithmetic mean of 2-6 MIC determinations, read-out: MIC (ug/mL) S. aureus ATCC 29213
Summary of the method: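 MIC was measured by dilution susceptibility testing following CLSI guidelines (M7-A7; M100-S18). The test organism is the CLSI quality-control reference strain.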

[5] = target: T1, Pseudomonas aeruginosa LpxC enzyme (Pseudomonas aeruginosa, UniProt P47205); assay: IC50 assay, LpxC enzyme from P. aeruginosa; format: biochemical; conditions: 0.5 nM enzyme, 25° C., pH 8.0, 20 min; ** = average of 2-8 assays
T1 construct: made in house; host or cells: E. coli
T1 sequence (P47205 1-303): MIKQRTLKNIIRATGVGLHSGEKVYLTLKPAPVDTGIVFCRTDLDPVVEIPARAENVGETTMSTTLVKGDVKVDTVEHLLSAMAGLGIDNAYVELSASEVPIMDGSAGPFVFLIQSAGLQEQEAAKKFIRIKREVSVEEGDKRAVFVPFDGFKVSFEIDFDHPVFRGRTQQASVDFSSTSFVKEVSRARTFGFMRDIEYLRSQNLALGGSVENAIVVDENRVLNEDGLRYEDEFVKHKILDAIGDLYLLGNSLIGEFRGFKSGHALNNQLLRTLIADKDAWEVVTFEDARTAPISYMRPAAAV
Summary of the method: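 P. aeruginosa LpxC (0.5 nM, expressed in E. coli) reacted with 0.5 uM ³H-acetyl-labelled UDP-3-O-(R-3-hydroxydecanoyl)-GlcNAc in 50 mM sodium phosphate pH 8.0 with 1 mg/ml BSA at 25 °C for 20 min. Charcoal stopped the reaction, and filtrate radioactivity was counted by scintillation after no-enzyme background subtraction.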

[6] = test system: Serratia marcescens; assay: MIC determination, S. marcescens; format: cell-based; conditions: multidrug-resistant clinical isolate, * = arithmetic mean of 2-6 MIC determinations, read-out: MIC (ug/mL) S. marcescens
Protocol: MIC determinations: The in vitro antibacterial activity of compounds described in the Examples was evaluated by minimum inhibitory concentration (MIC) testing according to Clinical and Laboratory Standards Institute (CLSI, formerly NCCLS) guidelines. See: Clinical and Laboratory Standards Institute. Methods for Dilution Antimicrobial Susceptibility Tests for Bacteria that Grow Aerobically; Approved Standard-Seventh Edition. CLSI document M7-A7 [ISBN 1-56238-587-9]. Clinical and Laboratory Standards Institute, 940 West Valley Road, Suite 1400, Wayne, Pa. 19087-1898 USA, 2006; also Clinical and Laboratory Standards Institute. Performance Standards for Antimicrobial Susceptibility Testing; Eighteenth Informational Supplement. CLSI document M100-S18 [ISBN1-56238-653-0]. Clinical and Laboratory Standards Institute.
The following bacterial strains were used:
Serratia marcescens: Multidrug-resistant clinical isolate.

[7] = test system: P. aeruginosa PAO280; assay: MIC determination, P. aeruginosa PAO280; format: cell-based; conditions: Pseudomonas aeruginosa, PAO280, read-out: MIC (ug/mL) P. aeruginosa PAO280
Summary of the method: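 Broth dilution MIC per CLSI M7-A7/M100-S18 guidelines. Strain PAO280 lacks efflux pumps MexAB-oprM, MexXY and MexZ.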

[8] = test system: Acinetobacter baumanii/haemolyticus; assay: MIC determination, A. baumanii/haemolyticus; format: cell-based; conditions: Acinetobacter baumannii; multidrug-resistant clinical isolate; * = arithmetic mean of 2-6 MIC determinations; read-out: MIC (ug/mL) A. baumanii/haemolyticus
Summary of the method: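 MICs were determined by CLSI broth dilution (M7-A7, M100-S18) against a multidrug-resistant clinical isolate of Acinetobacter baumanii/haemolyticus.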

[9] = test system: P. aeruginosa UI-18; assay: MIC determination, P. aeruginosa UI-18; format: cell-based; conditions: Pseudomonas aeruginosa, UI18; wild-type; * = arithmetic mean of 2-6 MIC determinations; read-out: MIC (ug/mL) P. aeruginosa UI-18
Summary of the method: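 MIC by broth dilution following CLSI M7-A7 and M100-S18 guidelines, tested against wild-type P. aeruginosa UI-18.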

| Compound | MIC [1] | MIC [2] | MIC [3] | MIC [4] | IC50 [5] | MIC [6] | MIC [7] | MIC [8] | MIC [9] |
| --- | --- | --- | --- | --- | --- | --- | --- | --- | --- |
| C[C@@H](O)[C@](C)(OCc1ccc(-c2ccccc2)cc1)C(=O)NO [Example 2b, (2S,3R)-2-(biphenyl-4-ylmethoxy)-N,3-dihydroxy-2-methylbutanamide] | > 64 µg/mL | > 64 µg/mL | > 64 µg/mL | > 64 µg/mL | 0.00435 µM | > 64 µg/mL | 0.75 µg/mL (≈ 2.38 µM) | > 64 µg/mL | 64 µg/mL (≈ 203 µM) |
| CC(C)[C@H](O)[C@](C)(OCc1ccc(-c2ccccc2)cc1)C(=O)NO [Example 3, (2S,3S)-2-(biphenyl-4-ylmethoxy)-N,3-dihydroxy-2,4-dimethylpentanamide] | > 64 µg/mL | > 64 µg/mL | > 64 µg/mL | > 64 µg/mL | 0.0716 µM | > 64 µg/mL | 32 µg/mL (≈ 93.2 µM) | > 64 µg/mL | > 64 µg/mL |
| CC[C@H](O)[C@](C)(OCc1ccc(-c2ccccc2)cc1)C(=O)NO [Example 1, (2S,3S)-2-(biphenyl-4-ylmethoxy)-N,3-dihydroxy-2-methylpentanamide] | > 64 µg/mL | > 64 µg/mL | > 64 µg/mL | > 64 µg/mL | 0.00844 µM | > 64 µg/mL | 3 µg/mL (≈ 9.11 µM) | > 64 µg/mL | > 64 µg/mL |
| O=C(NO)C(CO)(CCO)OCc1ccc(-c2ccccc2)cc1 (stereo not drawn) [Example 92] | > 64 µg/mL | > 64 µg/mL | > 64 µg/mL | > 64 µg/mL | 0.0134 µM | > 64 µg/mL | 2 µg/mL (≈ 6.04 µM) | > 64 µg/mL | > 64 µg/mL |
| C[C@H](O)[C@](C)(OCc1ccc(-c2ccccc2)cc1)C(=O)NO [Example 2a, (2S,3S)-2-(biphenyl-4-ylmethoxy)-N,3-dihydroxy-2-methylbutanamide] | > 64 µg/mL | > 64 µg/mL | > 64 µg/mL | > 64 µg/mL | 0.00299 µM | > 64 µg/mL | 0.5 µg/mL (≈ 1.59 µM) | > 64 µg/mL | 32 µg/mL (≈ 101 µM) |
| O=C(NO)C(CO)(OCc1ccc(-c2ccccc2)cc1)C(F)(F)F (stereo not drawn) [Example 50, 2-(biphenyl-4-ylmethoxy)-3,3,3-trifluoro-N-hydroxy-2-(hydroxymethyl)propanamide] | > 64 µg/mL | > 64 µg/mL | > 64 µg/mL | > 64 µg/mL | 0.0147 µM | > 64 µg/mL | 1 µg/mL (≈ 2.81 µM) | > 64 µg/mL | 48 µg/mL (≈ 135 µM) |
| CC(C)C[C@H](O)[C@](C)(OCc1ccc(-c2ccccc2)cc1)C(=O)NO [Example 6, (2S,3S)-2-(biphenyl-4-ylmethoxy)-N,3-dihydroxy-2,5-dimethylhexanamide] | > 64 µg/mL | > 64 µg/mL | > 64 µg/mL | 64 µg/mL (≈ 179 µM) | 0.16 µM | > 64 µg/mL | 64 µg/mL (≈ 179 µM) | > 64 µg/mL | > 64 µg/mL |
| CCCC[C@H](O)[C@](C)(OCc1ccc(-c2ccccc2)cc1)C(=O)NO [Example 5, (2S,3S)-2-(biphenyl-4-ylmethoxy)-N,3-dihydroxy-2-methylheptanamide] | > 64 µg/mL | > 64 µg/mL | > 64 µg/mL | 64 µg/mL (≈ 179 µM) | 0.0878 µM | > 64 µg/mL | 16 µg/mL (≈ 44.8 µM) | > 64 µg/mL | > 64 µg/mL |
| C[C@@](OCc1ccc(-c2ccccc2)cc1)(C(=O)NO)[C@@H](O)c1c[nH]cn1 [Example 9, (2S,3S)-2-(biphenyl-4-ylmethoxy)-N,3-dihydroxy-3-(1H-imidazol-4-yl)-2-methylpropanamide] | > 64 µg/mL | > 64 µg/mL | > 64 µg/mL | > 64 µg/mL | 0.00084 µM | > 64 µg/mL | 0.125 µg/mL (≈ 0.34 µM) | > 64 µg/mL | 8 µg/mL (≈ 21.8 µM) |
| O=C(NO)C1(OCc2ccc(-c3ccccc3)cc2)CCOCC1 [Example 58, 4-(biphenyl-4-ylmethoxy)-N-hydroxytetrahydro-2H-pyran-4-carboxamide] | > 64 µg/mL | > 64 µg/mL | > 64 µg/mL | > 64 µg/mL | 0.04 µM | > 64 µg/mL | 4 µg/mL (≈ 12.2 µM) | > 64 µg/mL | > 64 µg/mL |
| CC(OCc1ccc(-c2ccccc2)cc1)(C(=O)NO)C(=O)NCc1nnn[nH]1 (stereo not drawn) [Example 57, 2-(biphenyl-4-ylmethoxy)-N-hydroxy-2-methyl-N′-(1H-tetrazol-5-ylmethyl)malonamide] | > 64 µg/mL | > 64 µg/mL | > 64 µg/mL | > 64 µg/mL | 0.00134 µM | – | 4 µg/mL (≈ 10.1 µM) | > 64 µg/mL | > 64 µg/mL |
| Cc1cccnc1CCNC(=O)C(C)(OCc1ccc(-c2ccccc2)cc1)C(=O)NO (stereo not drawn) [Example 70, 2-(biphenyl-4-ylmethoxy)-N-hydroxy-2-methyl-N′-[2-(3-methylpyridin-2-yl)ethyl]malonamide] | > 64 µg/mL | > 64 µg/mL | 16 µg/mL (≈ 36.9 µM) | > 64 µg/mL | 0.00804 µM | – | 1 µg/mL (≈ 2.31 µM) | 32 µg/mL (≈ 73.8 µM) | 32 µg/mL (≈ 73.8 µM) |
| Cc1cc([C@H](O)[C@](C)(OCc2ccc(-c3ccc(F)cc3)cc2)C(=O)NO)no1 [Example 38, (2S,3S)-2-[(4′-fluorobiphenyl-4-yl)methoxy]-N,3-dihydroxy-2-methyl-3-(5-methylisoxazol-3-yl)propanamide] | 64 µg/mL (≈ 160 µM) | 8 µg/mL (≈ 20 µM) | 2 µg/mL (≈ 4.99 µM) | > 64 µg/mL | 0.000132 µM | – | 0.015 µg/mL (≈ 0.0375 µM) | 4 µg/mL (≈ 9.99 µM) | 1 µg/mL (≈ 2.5 µM) |
